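96-well plates; 48 h exposure; 5 concentrations. Endpoints by linear interpolation between flanking doses. Not reached: highest tested concentration assigned. GI50: concentration for 50% inhibition of growth.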 Activity calls are given as the source filed them. Rule as the data show it: active = GI50 up to about 1.1 µM and inactive = higher.
Columns and labels:
Test in all cases: NCI tumour cell line growth inhibition, 48 h
SF-268 = system: SF-268
SNB-19 = system: SNB-19
M19-MEL = system: M19-MEL
U-251 = system: U-251
A549 = system: A549
HOP-92 = system: HOP-92
SW-620 = system: SW-620
XF498 = system: XF498
HL-60 = system: HL-60
RXF 393 = system: RXF 393
SN12C = system: SN12C
KM12 = system: KM12
RPMI-8226 = system: RPMI-8226
NCI-H23 = system: NCI-H23
NCI-H460 = system: NCI-H460
OVCAR-8 = system: OVCAR-8
SK-MEL-2 = system: SK-MEL-2
SR = system: SR
CCRF-CEM = system: CCRF-CEM
ACHN = system: ACHN
HCC 2998 = system: HCC 2998
K562 = system: K562
KM-20L2 = system: KM-20L2
Malme-3M = system: Malme-3M
SK-MEL-5 = system: SK-MEL-5
NCI-H226 = system: NCI-H226
CAKI-1 = system: CAKI-1
NCI-H522 = system: NCI-H522
SNB-78 = system: SNB-78
SF-295 = system: SF-295
HOP-18 = system: HOP-18
OVCAR-5 = system: OVCAR-5
UO-31 = system: UO-31
TK-10 = system: TK-10
M14 = system: M14
786-0 = system: 786-0
MOLT-4 = system: MOLT-4
UACC-257 = system: UACC-257
OVCAR-3 = system: OVCAR-3
LOX IMVI = system: LOX IMVI
SNB-75 = system: SNB-75
DMS-114 = system: DMS-114
DLD-1 = system: DLD-1
HT-29 = system: HT-29
HCT-15 = system: HCT-15
OVCAR-4 = system: OVCAR-4
SK-MEL-28 = system: SK-MEL-28
EKVX = system: EKVX
IGROV-1 = system: IGROV-1
LXFL 529 = system: LXFL 529
DMS-273 = system: DMS-273
COLO 205 = system: COLO 205
SK-OV-3 = system: SK-OV-3
SF-539 = system: SF-539
HOP-62 = system: HOP-62
A498 = system: A498
HCT-116 = system: HCT-116
UACC-62 = system: UACC-62

With `Cc1cccc2c1C(=O)OC2(C)c1cccc2ccccc12` (centres undefined) the GI50 (SF-268) was 28.4 µM (inactive), the GI50 (SNB-19) was 78.5 µM (inactive) and the GI50 (M19-MEL) was 50 µM (inactive). The GI50 (U-251) was 26.2 µM (inactive), the GI50 (A549) was 35.2 µM (inactive) and the GI50 (HOP-92) was 18.6 µM (inactive). The GI50 (SW-620) was 30.3 µM (inactive), the GI50 (XF498) was 4.86 µM (inactive) and the GI50 (HL-60) was 16.4 µM (inactive). For the same compound, the GI50 (RXF 393) was 22.6 µM (inactive), the GI50 (SN12C) was 21.2 µM (inactive) and the GI50 (KM12) was 27.6 µM (inactive). For the same compound, the GI50 (RPMI-8226) was 25.4 µM (inactive), the GI50 (NCI-H23) was 30.8 µM (inactive) and the GI50 (NCI-H460) was 29.7 µM (inactive). The GI50 (OVCAR-8) was 32.3 µM (inactive), the GI50 (SK-MEL-2) was 23.8 µM (inactive) and the GI50 (SR) was 23.2 µM (inactive). For the same compound, the GI50 (CCRF-CEM) was 17.5 µM (inactive), the GI50 (ACHN) was 30.6 µM (inactive) and the GI50 (HCC 2998) was 20.9 µM (inactive). For the same compound, the GI50 (K562) was 16.4 µM (inactive), the GI50 (KM-20L2) was 24.4 µM (inactive) and the GI50 (Malme-3M) was 25.5 µM (inactive). The GI50 (SK-MEL-5) was 16.4 µM (inactive), the GI50 (NCI-H226) was 26.5 µM (inactive) and the GI50 (CAKI-1) was 19.8 µM (inactive). For the same compound, the GI50 (NCI-H522) was 16.8 µM (inactive), the GI50 (SNB-78) was 73.6 µM (inactive) and the GI50 (SF-295) was 32.1 µM (inactive). The GI50 (HOP-18) was > 100 µM (inactive), the GI50 (OVCAR-5) was > 100 µM (inactive) and the GI50 (UO-31) was 32.8 µM (inactive). The GI50 (TK-10) was 29.5 µM (inactive), the GI50 (M14) was 13 µM (inactive) and the GI50 (786-0) was 30.9 µM (inactive). The GI50 (MOLT-4) was 26.2 µM (inactive), the GI50 (UACC-257) was 34.2 µM (inactive) and the GI50 (OVCAR-3) was 26.9 µM (inactive). For the same compound, the GI50 (LOX IMVI) was 30.3 µM (inactive), the GI50 (SNB-75) was 9.71 µM (inactive) and the GI50 (DMS-114) was 43.1 µM (inactive). The GI50 (DLD-1) was 30.5 µM (inactive), the GI50 (HT-29) was 30.5 µM (inactive) and the GI50 (HCT-15) was 29 µM. The GI50 (OVCAR-4) was 22.4 µM (inactive), the GI50 (SK-MEL-28) was 41.3 µM (inactive) and the GI50 (EKVX) was 35.7 µM (inactive).
With `c1ccc2[nH]c(-c3nc4ccccc4o3)nc2c1` the GI50 (SF-268) was > 100 µM (inactive), the GI50 (IGROV-1) was 46.5 µM (inactive) and the GI50 (M19-MEL) was > 100 µM (inactive). For the same compound, the GI50 (U-251) was > 100 µM (inactive), the GI50 (A549) was > 100 µM (inactive) and the GI50 (HOP-92) was > 100 µM (inactive). The GI50 (XF498) was > 100 µM (inactive), the GI50 (HL-60) was 17.6 µM (inactive) and the GI50 (SN12C) was > 100 µM (inactive). The GI50 (KM12) was > 100 µM (inactive), the GI50 (RPMI-8226) was 81.3 µM (inactive) and the GI50 (NCI-H23) was > 100 µM (inactive). For the same compound, the GI50 (NCI-H460) was > 100 µM (inactive), the GI50 (OVCAR-8) was > 100 µM (inactive) and the GI50 (SK-MEL-2) was > 100 µM (inactive). The GI50 (SR) was > 100 µM (inactive), the GI50 (CCRF-CEM) was > 100 µM (inactive) and the GI50 (ACHN) was > 100 µM (inactive). The GI50 (HCC 2998) was > 100 µM (inactive), the GI50 (KM-20L2) was > 100 µM (inactive) and the GI50 (Malme-3M) was > 100 µM (inactive). The GI50 (LXFL 529) was > 100 µM (inactive), the GI50 (SK-MEL-5) was 62.8 µM (inactive) and the GI50 (NCI-H226) was 86.3 µM (inactive). The GI50 (DMS-273) was > 100 µM (inactive), the GI50 (NCI-H522) was 35.1 µM (inactive) and the GI50 (COLO 205) was 49.9 µM (inactive). For the same compound, the GI50 (SK-OV-3) was > 100 µM (inactive), the GI50 (SNB-78) was > 100 µM (inactive) and the GI50 (SF-295) was > 100 µM (inactive). The GI50 (OVCAR-5) was > 100 µM (inactive), the GI50 (UO-31) was > 100 µM (inactive) and the GI50 (TK-10) was 45.1 µM (inactive). For the same compound, the GI50 (M14) was > 100 µM (inactive), the GI50 (SF-539) was > 100 µM (inactive) and the GI50 (786-0) was > 100 µM (inactive). The GI50 (MOLT-4) was > 100 µM (inactive), the GI50 (UACC-257) was > 100 µM (inactive) and the GI50 (HOP-62) was > 100 µM (inactive). For the same compound, the GI50 (A498) was > 100 µM (inactive), the GI50 (OVCAR-3) was > 100 µM (inactive) and the GI50 (LOX IMVI) was 66.1 µM (inactive). For the same compound, the GI50 (SNB-75) was > 100 µM (inactive), the GI50 (HCT-116) was > 100 µM (inactive) and the GI50 (DMS-114) was > 100 µM (inactive). The GI50 (DLD-1) was > 100 µM (inactive), the GI50 (HT-29) was > 100 µM (inactive) and the GI50 (HCT-15) was greater than 100 µM. For the same compound, the GI50 (OVCAR-4) was > 100 µM (inactive), the GI50 (SK-MEL-28) was > 100 µM (inactive) and the GI50 (EKVX) was 8.65 µM (inactive).
For `C=CCC(C)(C(=O)NCCC)C(=O)c1ccccc1O` (centres undefined), the GI50 (SF-268) was > 100 µM (inactive), the GI50 (SNB-19) was > 100 µM (inactive) and the GI50 (IGROV-1) was > 100 µM (inactive). For the same compound, the GI50 (M19-MEL) was > 100 µM (inactive), the GI50 (U-251) was > 100 µM (inactive) and the GI50 (A549) was > 100 µM (inactive). For the same compound, the GI50 (SW-620) was > 100 µM (inactive), the GI50 (HL-60) was > 100 µM (inactive) and the GI50 (RXF 393) was > 100 µM (inactive). The GI50 (SN12C) was > 100 µM (inactive), the GI50 (KM12) was > 100 µM (inactive) and the GI50 (RPMI-8226) was > 100 µM (inactive). The GI50 (NCI-H460) was > 100 µM (inactive), the GI50 (OVCAR-8) was > 100 µM (inactive) and the GI50 (SK-MEL-2) was > 100 µM (inactive). For the same compound, the GI50 (SR) was > 100 µM (inactive), the GI50 (CCRF-CEM) was > 100 µM (inactive) and the GI50 (ACHN) was > 100 µM (inactive). The GI50 (HCC 2998) was > 100 µM (inactive), the GI50 (K562) was > 100 µM (inactive) and the GI50 (KM-20L2) was > 100 µM (inactive). The GI50 (Malme-3M) was > 100 µM (inactive), the GI50 (LXFL 529) was > 100 µM (inactive) and the GI50 (SK-MEL-5) was > 100 µM (inactive). For the same compound, the GI50 (NCI-H226) was > 100 µM (inactive), the GI50 (CAKI-1) was > 100 µM (inactive) and the GI50 (DMS-273) was > 100 µM (inactive). For the same compound, the GI50 (NCI-H522) was > 100 µM (inactive), the GI50 (COLO 205) was > 100 µM (inactive) and the GI50 (SK-OV-3) was > 100 µM (inactive). For the same compound, the GI50 (UACC-62) was > 100 µM (inactive), the GI50 (SNB-78) was > 100 µM (inactive) and the GI50 (HOP-18) was > 100 µM (inactive). For the same compound, the GI50 (UO-31) was > 100 µM (inactive), the GI50 (TK-10) was > 100 µM (inactive) and the GI50 (M14) was > 100 µM (inactive). For the same compound, the GI50 (SF-539) was > 100 µM (inactive), the GI50 (786-0) was > 100 µM (inactive) and the GI50 (MOLT-4) was > 100 µM (inactive). The GI50 (UACC-257) was > 100 µM (inactive), the GI50 (HOP-62) was > 100 µM (inactive) and the GI50 (A498) was > 100 µM (inactive). The GI50 (OVCAR-3) was > 100 µM (inactive), the GI50 (SNB-75) was > 100 µM (inactive) and the GI50 (HCT-116) was > 100 µM (inactive). The GI50 (DMS-114) was > 100 µM (inactive), the GI50 (DLD-1) was > 100 µM (inactive) and the GI50 (HCT-15) was greater than 100 µM. The GI50 (OVCAR-4) was > 100 µM (inactive) and the GI50 (SK-MEL-28) was > 100 µM (inactive).

From ChEMBL document CHEMBL1201862, “PubChem BioAssay data set” (2004)
